Results taken from patent US20070099891A1, “Medicinal compositions and combinations” (priority 2003, published 2007).

Legend:
LDL receptor protein = assay: Expression of LDL receptor protein in liver of endogenous hyperlipemia rabbit (immunoblotting); type: in vivo; conditions: casein diet
Procedure: For the rabbit used in Example 2, liver was taken out after one day of a final administration of the agent. A homogenizing buffer (20 mM Tris-HCl (pH 8.0), 1 mM CaCl2, 150 mM NaCl, a mix of protease inhibitor) was added to a part of this liver and the mixture was homogenized and centrifuged at 8000×g, 4° C. for 10 min., thereafter the supernatant was ultracentrifuged at […], 4° C. for 60 min. The resulting precipitate was washed by adding the homogenizing buffer and centrifuging at 10,000×g, 4° C. for 30 min., and thereafter was suspended in a suspension buffer (125 mM Tris-maleate (pH 6.8), 1 mM CaCl2, 160 mM NaCl, 1% (w/v) Triton X-100, Protease inhibitor (Complete™, Boehringer Ingelhaim Co., Ltd., Ingelheim, Germany)) to prepare a fraction of the liver membrane. After mixing with a buffer (125 mM Tris-HCl (pH 6.8), 20% (v/v) glycerol, 4% (w/v) sodium dodecyl sulfate (hereinafter, referred to as SDS) and 0.001% (w/v) bromophenol blue), the fraction was subjected to SDS polyacrylamide electrophoresis (using a 7.5% polyacrylamide gel), and the resultant was transferred to a polyvinylidene difluoride (PVDF) membrane and then the amount of LDL receptor protein was evaluated by an immunoblotting using anti-LDL receptor antibody. […]

HepG2 cell = assay: LDL binding, uptake and degradation activity in cultured human hepatic cell line HepG2 ([125I]LDL); type: cell-based; conditions: for Binding Amounts / Degradation Amounts / Uptake Amounts: mean ± standard error, 6 experiments
Procedure: The cultured human hepatic cell line HepG2 cell was purchased from the Dainippon Pharmaceuticals Co. Ltd. (Osaka, Japan). The determinations of LDL binding, uptake and degradation activity were performed according to a prior report (Method in Enzymology, 98, 241-255, 1983). Cells were seeded in a 24 well plate and were incubated in the Dulbecco's modified Eagle/F-12 (DMEM/F-12) medium containing 10% fetal bovine serum and antibiotics at 37° C. for two days. After washing the cells, a DMEM/F-12 medium containing 10% lipoprotein-removed serum, the test substrate and the antibiotics was added and the cells were incubated at 37° C. for 19 hours. After adding [^125I]LDL, the cells were incubated at 37° C. for another 5 hours. The culture supernatant was collected and trichloroacetic acid was added thereto, and then it was statically kept for 30 minutes or more at 4° C. After centrifuging (700×g, 4° C., 15 min.), the supernatant was separated and sodium iodide was added thereto, and further hydrogen peroxide was added. After treating the mixture at room temperature for 5 min., chloroform was added and the mixture was stirred. After centrifuging (700×g, 4° C., 5 min.), the radioactivity in the supernatant was measured by a gamma counter, and then the data thus obtained was evaluated as an amount of degradation of LDL. Separately, after washing the cells thoroughly, a dissociation buffer (50 mM NaCl, 10 mM 2-[4-(2-hydroxyethyl)-1-piperadinyl]ethane sulfonic acid (HEPES, pH 7.4), 10 mg/mL heparin) was added and then the cells were statically kept at 4° C. for 60 min. or more. […] Furthermore, 1N sodium hydroxide was added to the remaining cells and the mixture was reacted for more than 10 min. to dissolve the cells. […] On the other hand, the amounts of non-specific degradation, binding and uptake were evaluated by coexisting an excess of non-labeled LDL on addition of [^125I] LDL, while the amounts of specific degradation, binding and uptake were obtained by subtracting the amounts of non-specific degradation, binding and uptake from the total amounts of degradation, binding and uptake and further calibrating with the amounts of protein.

[1] = single agent; not reduced more even if the dosage is increased; cited from earlier work
[2] = tested on: rabbit with endogenous hyperlipemia caused by a casein diet load; assay: Blood cholesterol lowering action in endogenous hyperlipemia rabbit (casein diet); type: in vivo, New Zealand White rabbit
Procedure: 8 weeks old male New Zealand White rabbit were bred for 12 days with ad libitum water and feeding conditions (rabbit·guinea pig breeding feed RC4, Oriental Yeast Co., Ltd., Tokyo, Japan). Thereafter, the diet was replaced with the casein diet containing 27% casein (Oriental Yeast Co., Ltd., Tokyo, Japan), and then the restricted feeding to the 100 g per 3 kg weight was performed for one week. At this point, the blood was collected via auricular veins and the plasma total cholesterol amounts was measured and then these rabbits were divided such that the mean of the weight and the plasma total cholesterol were equal approximately. […] Each agent was dissolved in propylene glycol containing 0.5% polyoxyethylenesorbitan monooleate (Tween 80) and then these were administered orally. On the other hand, for control group, the solvent (propylene glycol comprising 0.5% Tween 80) was administered orally. At one day after final administration, the blood was collected and plasma total cholesterol was measured and also the lipoprotein was fractioned according to the differential ultracentrifugation method (Nobuhiro, Yamada, Yasushi Sato edit.: Study strategy of Arteriosclerotic+Hyperlipemia, 63-69, 1996, Shujunsha Co. Ltd.), and then the amounts of cholesterol in the fraction of LDL were measured. The amount of total cholesterol in plasma and the amount of cholesterol in LDL fraction were determined by using an automatic biochemical analyzer (Biochemical Analyzer CHEM 1, Bayer Corporation, NY, USA).

[3] = 1 mg/kg orally for 3 weeks, mean ± standard error

SMILES | amount of the expression of LDL receptor protein in liver (in words, FIG. 1) (LDL receptor protein; atorvastatin 1 and 3 mg/kg) | Binding Amounts (HepG2 cell; single agent 0.1 μM) [ng/mg protein] | Degradation Amounts (HepG2 cell; single agent 0.1 μM) [ng/mg protein] | Binding Amounts (HepG2 cell; single agent 1 μM) [ng/mg protein] | Degradation Amounts (HepG2 cell; single agent 1 μM) [ng/mg protein] | Binding Amounts (HepG2 cell; single agent 10 μM) [ng/mg protein] | Degradation Amounts (HepG2 cell; single agent 10 μM) [ng/mg protein] | degree of lowering of LDL cholesterol [1] [%] | plasma LDL cholesterol [2, 3] [mg/dL] | plasma total cholesterol [2, 3] [mg/dL] | plasma total cholesterol lowering action and plasma LDL cholesterol lowering action (in words) ([2]; 1 mg/kg, compared to control) | amount of the expression of LDL receptor protein in liver (in words, FIG. 1) (LDL receptor protein; compound A 1 mg/kg) | amounts of binding, uptake and degradation of LDL (in words) (HepG2 cell; compound A 0.01 to 1 μM) | Binding Amounts (HepG2 cell; single agent 0.01 μM) [ng/mg protein] | Degradation Amounts (HepG2 cell; single agent 0.01 μM) [ng/mg protein] | Uptake Amounts (HepG2 cell; single agent 0.01 μM) [ng/mg protein] | Uptake Amounts (HepG2 cell; single agent 0.1 μM) [ng/mg protein] | Uptake Amounts (HepG2 cell; single agent 1 μM) [ng/mg protein]
CC(C)c1c(C(=O)Nc2ccccc2)c(-c2ccccc2)c(-c2ccc(F)cc2)n1CC[C@@H](O)C[C@@H](O)CC(=O)O [Atorvastatin, atorvastatin, reference compound] | increased | 81.7 ± 2.1 | 800.9 ± 32.5 | 86.3 ± 2.7 | 1000.5 ± 62.9 | 95.5 ± 4.0 | 1062.3 ± 66.0 |  |  |  |  |  |  |  |  |  |  | 
O=C1[C@H](CC[C@H](O)c2ccc(F)cc2)[C@@H](c2ccc(O)cc2)N1c1ccc(F)cc1 [ezetimibe, 1-(4-fluorophenyl)-3(R)-[3-(4-fluorophenyl)-3(S)-hydroxypropyl]-4(S)-(4-hydroxyphenyl)-2-azetidinone] |  |  |  |  |  |  |  | 15 to 20 |  |  |  |  |  |  |  |  |  | 
CCCCn1c(=O)c(NC(=O)Nc2c(C(C)C)cc(N)cc2C(C)C)c(-c2cccc(OCCCO)c2)c2cccnc21 [Compd. A, N-[1-butyl-4-[3-[3-(hydroxy)propoxy]phenyl]-1,2-dihydro-2-oxo-1,8-naphthyridine-3-yl]-N′-(2,6-diisopropyl-4-aminophenyl)urea] |  | 90.9 ± 4.1 | 1016.8 ± 45.3 | 93.7 ± 2.5 | 1126.3 ± 70.3 |  |  |  | 52 ± 9 | 108 ± 5 | significant effects | increased | increased | 85.2 ± 3.6 | 927.5 ± 90.0 | 852.9 ± 47.3 | 886.4 ± 29.2 | 1172.2 ± 46.2
